Data taken from PMC9226124, “Macrocycle-stabilization of its interaction with 14-3-3 increases plasma membrane localization and activity of CFTR” (Nature Communications, 2022).
Several values for one entry are separate records, joined by “and”; a condition that tells them apart may be missing. Equal entries are not always repeated.

Legend:
[1] = target: T1, 3HA-tagged F508del-CFTR in BHK cells (Homo sapiens, UniProt P13569, DEL508-508); assay: CFTR trafficking assay (surface expression); assay type: cell-based, hamster; settings: for F508del-CFTR trafficking towards the plasma membrane: BHK cells, 24 h, 10 μM compound; for F508del-CFTR surface expression signal (Fig5a): individual replicates
T1 construct: expressed in transfected cells; host or cells: baby hamster kidney (BHK) cells (Carlile et al. 2007)
Protocol: Twelve (12) validated hit compounds from the initial screening and focused validation library were tested for their effect on F508del-CFTR trafficking. Baby hamster kidney (BHK) cells expressing 3HA-tagged F508del-CFTR were treated for 24 h with 10 μM compound. After fixation of the cells, a combination of mouse monoclonal anti-HA antibody and anti-mouse IgG conjugated with FITC was used to detect F508del-CFTR that had trafficked to the plasma membrane as described previously. […] Additionally, a fluorescence imaging plate reader (FLIPR) Membrane Potential (FMP) assay was performed. This assay measures real-time membrane potential changes associated with ion channel activation and ion transporter proteins. F508del-CFTR expressing BHK cells were incubated for 24 h with 20 μM compound before treatment with the potentiator genistein, FMP dye, and activator forskolin. The fluorescence intensity is thus a measure for the function of the CFTR protein in the plasma membrane of these cells. The F508del-CFTR corrector VX-809 (lumacaftor) and the triple combination Trikafta® were used as positive controls in this assay. […] Another cellular assay was performed with the Ussing Chamber, which detects and quantifies transport of ions across epithelial tissue. F508del-CFTR expressing cystic fibrosis epithelial (CFBE) cells were treated for 18 h with 20 μM CY007424. After forskolin and genistein stimulation, the short-circuit current of the cells was measured.
Fig. 5 Cellular activity of macrocycles stabilizing the 14-3-3/CFTR PPI. a Surface expression of 3HA-tagged F508del-CFTR in BHK cells incubated for 24 h with 10 μM compound and treated with mouse monoclonal anti-HA antibody and anti-mouse IgG conjugated with FITC (n = 4 or n = 3 biological replicates, bars represent the mean). b, c FLIPR Membrane Potential (FMP) assay of F508del-CFTR expressing BHK cells treated for 24 h with the macrocycles (b, n = 6 biological replicates, bars represent the mean) or with CY007424 and/or VX-809 or Trikafta®, with and without CFTR inhibitor INH172 (c, n = 4 biological replicates, bars represent the mean). d Using chamber experiment of F508del-CFTR expressing CFBE cells treated for 18 h with CY007424, VX-809, or Trikafta® or in combinations. CFTR activity is assayed by measurement of short-circuit current of cells after stimulation by forskolin and the potentiator genistein (n = 3 or n = 6 biological replicates, bars represent the mean). Source data are provided as a Source Data file.
The trafficking assay was performed as previously described by Carlile et al.[21]. In brief, 3HA-tagged F508del-CFTR expressing baby hamster kidney (BHK) cells (cells earlier described by Carlile et. al. 2007)[21] were seeded in 96-well plates (Corning half area, black-sided, clear bottom) at 15,000 cells per well. After 24 h incubation at 37 °C, the cells were treated with 10 μM of compound for 24 h (final DMSO concentration 1% v/v). The cells were fixated with 4% paraformaldehyde, washed with PBS, and then blocked with fetal bovine serum (5% in PBS). Mouse monoclonal anti-HA antibody (H9658 Sigma, 1:150 dilution in PBS) was incubated overnight, and, after three washes with PBS, the background fluorescence was measured in a plate reader (488 nm excitation, 510 nm emission). The secondary antibody anti-mouse IgG conjugated with FITC (F5262 Sigma, 1:100 dilution in PBS) was incubated for 1 h, the cells were washed three times with PBS and analyzed in the plate reader again. Background fluorescence was subtracted from the signal, after which the signal was normalized to the DMSO control and wt-CFTR expressing cells.

[2] = target: T2, 14-3-3β/CFTRpS753pS768 complex (Homo sapiens, UniProt P13569+P31946); assay: Dose-response fluorescence polarization (FP) assay, compound titration; assay type: binding; settings: for EC50: 14-3-3β 10 μM, labeled CFTRpS753pS768 100 nM, read-out: EC50; for FP signal: With 14-3-3
T2 construct: His6 (cleaved yes); made in house; peptide synthetic
Protocol: The 14-3-3β concentration used for the FP screening assay was 10 μM (dashed line). c HTS FP assay of the Cyclenium library. The samples contain 100 nM of FITC-CFTR_pS753pS768 peptide, 10 μM 14-3-3β, and 50 μM compound. FC-A (100 µM) was added as a positive control and DMSO as the negative control. Hit compounds are defined as a polarization increase which is higher than 20% of the response of FC-A. Red squares are compounds that appeared positive in the negative control without 14-3-3. […] Background polarization was subtracted from all values, n = 3 technical replicates. Compounds selected for further analysis are indicated with an asterisk. e Polarization in the absence of 14-3-3. […] Source data are provided as a Source Data file. […]
The FITC-labeled peptides were dissolved in FP buffer (10 mM HEPES pH 7.4, 150 mM NaCl, 0.1% Tween20, 1 mg/mL BSA) to a final concentration of 100 nM or 10 nM. For the dose-response assays, a 14-3-3β concentration of 10 μM was used while titrating the compounds in a two-times dilution series and, for the other assays, a dilution series of 14-3-3β was made with constant concentration of compound. The dilution series were made in 384 Corning Black Round Bottom well plates and their polarization was measured with a Tecan Infinite F500 plate reader (ex. = 485 nm, em. = 535 nm). The method of fitting of the curves was: “log(agonist) vs. response – Variable slope (four parameters)” from GraphPad Prism. The equation is Y = Bottom + (Top-Bottom)/(1 + 10^((LogEC50-X)*HillSlope)).

T2 sequence (P31946 whole entry): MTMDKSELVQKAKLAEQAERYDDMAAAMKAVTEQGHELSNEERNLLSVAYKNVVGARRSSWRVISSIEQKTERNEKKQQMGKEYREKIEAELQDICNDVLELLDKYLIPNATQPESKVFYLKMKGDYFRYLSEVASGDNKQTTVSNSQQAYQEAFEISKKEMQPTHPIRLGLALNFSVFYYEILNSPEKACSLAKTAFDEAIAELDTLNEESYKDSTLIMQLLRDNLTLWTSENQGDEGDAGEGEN
T2 sequence (P13569 747-774 limits assumed): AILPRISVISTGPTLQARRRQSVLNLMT
T1 sequence (P13569 with tags, fused parts or gaps DEL508-508): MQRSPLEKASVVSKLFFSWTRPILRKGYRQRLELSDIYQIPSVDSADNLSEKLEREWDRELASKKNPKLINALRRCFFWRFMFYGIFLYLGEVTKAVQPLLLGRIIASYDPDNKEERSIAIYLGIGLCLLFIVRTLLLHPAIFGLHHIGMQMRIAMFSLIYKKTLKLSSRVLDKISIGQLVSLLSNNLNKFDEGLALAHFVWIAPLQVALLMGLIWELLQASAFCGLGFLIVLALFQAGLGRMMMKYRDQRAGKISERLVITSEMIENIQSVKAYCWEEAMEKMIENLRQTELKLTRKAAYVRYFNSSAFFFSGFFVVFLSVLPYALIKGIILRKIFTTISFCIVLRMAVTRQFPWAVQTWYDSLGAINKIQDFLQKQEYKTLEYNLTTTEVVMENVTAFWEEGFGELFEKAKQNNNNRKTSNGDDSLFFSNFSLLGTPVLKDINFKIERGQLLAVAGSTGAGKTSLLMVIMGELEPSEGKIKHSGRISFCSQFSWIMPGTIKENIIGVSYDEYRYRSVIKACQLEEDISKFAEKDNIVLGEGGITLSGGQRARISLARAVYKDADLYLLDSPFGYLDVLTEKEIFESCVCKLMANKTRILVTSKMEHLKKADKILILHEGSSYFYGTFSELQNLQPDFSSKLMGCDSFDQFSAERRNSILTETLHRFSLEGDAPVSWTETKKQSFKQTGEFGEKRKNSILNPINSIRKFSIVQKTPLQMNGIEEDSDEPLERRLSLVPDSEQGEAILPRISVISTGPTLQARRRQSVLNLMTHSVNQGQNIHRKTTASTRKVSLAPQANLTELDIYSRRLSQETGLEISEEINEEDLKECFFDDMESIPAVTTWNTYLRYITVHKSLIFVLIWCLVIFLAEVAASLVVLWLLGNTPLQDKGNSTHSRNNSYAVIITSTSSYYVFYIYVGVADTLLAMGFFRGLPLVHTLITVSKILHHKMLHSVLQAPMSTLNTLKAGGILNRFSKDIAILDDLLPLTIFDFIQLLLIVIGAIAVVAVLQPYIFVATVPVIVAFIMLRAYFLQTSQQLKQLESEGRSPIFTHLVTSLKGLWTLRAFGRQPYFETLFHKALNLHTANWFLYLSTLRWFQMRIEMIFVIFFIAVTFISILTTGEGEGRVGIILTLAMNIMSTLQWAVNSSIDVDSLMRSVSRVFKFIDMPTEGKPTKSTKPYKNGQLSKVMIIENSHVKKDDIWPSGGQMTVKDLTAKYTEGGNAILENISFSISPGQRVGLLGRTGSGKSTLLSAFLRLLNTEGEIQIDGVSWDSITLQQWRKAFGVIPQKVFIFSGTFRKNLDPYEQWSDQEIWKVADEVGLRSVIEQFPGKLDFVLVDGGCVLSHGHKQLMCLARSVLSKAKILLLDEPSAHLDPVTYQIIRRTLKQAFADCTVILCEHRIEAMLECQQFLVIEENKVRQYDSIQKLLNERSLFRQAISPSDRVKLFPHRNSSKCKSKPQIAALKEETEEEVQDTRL

`CC1NC(=O)C(CCCNC(=N)N)NC(=O)C2CCCN2Cc2cccc(c2)-c2ccccc2CNC(=O)C(CCCNC(=N)N)NC1=O` (centres unmarked) [CY007476] was tested, and the “F508del-CFTR trafficking towards the plasma membrane” value [1] was “increase of F508del-CFTR trafficking towards the plasma membrane”, the “F508del-CFTR surface expression signal (Fig5a)” value [1] was 1288.45 and 1177.16 and 1241.43 and 1259.33 and the EC50 [2] was 147 µM. For the same compound, the FP signal ([2]; compound 476.8 pM) was 1, the FP signal ([2]; compound 953.7 pM) was 3 and the FP signal ([2]; compound 1.90735e-9 M) was 2. For the same compound, the FP signal ([2]; compound 3.8147e-9 M) was 5, the FP signal ([2]; compound 7.6294e-9 M) was 5 and the FP signal ([2]; compound 1.52588e-8 M) was 4. For the same compound, the FP signal ([2]; compound 3.05176e-8 M) was 6, the FP signal ([2]; compound 6.10352e-8 M) was 6 and the FP signal ([2]; compound 1.2207e-7 M) was 3. The FP signal ([2]; compound 2.44141e-7 M) was 4, the FP signal ([2]; compound 4.88281e-7 M) was 4 and the FP signal ([2]; compound 9.76563e-7 M) was 5. For the same compound, the FP signal ([2]; compound 1.95313e-6 M) was 5, the FP signal ([2]; compound 3.90625e-6 M) was 6 and the FP signal ([2]; compound 7.8125e-6 M) was 10. It also gave an FP signal ([2]; compound 1.5625e-5 M) of 13, an FP signal ([2]; compound 3.125e-5 M) of 24 and an FP signal ([2]; compound 6.25e-5 M) of 59. It also gave an FP signal ([2]; compound 0.000125 M) of 124, an FP signal ([2]; compound 0.00025 M) of 186 and an FP signal ([2]; compound 0.0005 M) of 230. The FP signal ([2]; compound 0.001 M) was 257.
In the case of `CN1CC(=O)NC(CCCNC(=N)N)C(=O)NC(CCC(N)=O)C(=O)NC(CCCNC(=N)N)C(=O)NCc2ccccc2-c2cccc(c2)C1` (centres unmarked) [CY007491], the “F508del-CFTR trafficking towards the plasma membrane” value [1] is reported as “increase of F508del-CFTR trafficking towards the plasma membrane”, the “F508del-CFTR surface expression signal (Fig5a)” value [1] is reported as 1616.06 and 1494.72 and 1508.75 and 1545.64 and the EC50 [2] is reported as 244 µM. The FP signal ([2]; compound 476.8 pM) was 4, the FP signal ([2]; compound 953.7 pM) was 5 and the FP signal ([2]; compound 1.90735e-9 M) was 5. The FP signal ([2]; compound 3.8147e-9 M) was 6, the FP signal ([2]; compound 7.6294e-9 M) was 4 and the FP signal ([2]; compound 1.52588e-8 M) was 6. The FP signal ([2]; compound 3.05176e-8 M) was 3, the FP signal ([2]; compound 6.10352e-8 M) was 5 and the FP signal ([2]; compound 1.2207e-7 M) was 8. It also gave an FP signal ([2]; compound 2.44141e-7 M) of 6, an FP signal ([2]; compound 4.88281e-7 M) of 5 and an FP signal ([2]; compound 9.76563e-7 M) of 5. The FP signal ([2]; compound 1.95313e-6 M) was 6, the FP signal ([2]; compound 3.90625e-6 M) was 7 and the FP signal ([2]; compound 7.8125e-6 M) was 7. For the same compound, the FP signal ([2]; compound 1.5625e-5 M) was 9, the FP signal ([2]; compound 3.125e-5 M) was 18 and the FP signal ([2]; compound 6.25e-5 M) was 35. It also gave an FP signal ([2]; compound 0.000125 M) of 83, an FP signal ([2]; compound 0.00025 M) of 142 and an FP signal ([2]; compound 0.0005 M) of 193. For the same compound, the FP signal ([2]; compound 0.001 M) was 240.
In the case of `N=C(N)NCCCC1NC(=O)C(CCC(N)=O)NC(=O)C(CCCNC(=N)N)NC(=O)C2Cc3ccccc3CN2Cc2cccc(c2)-c2ccccc2CNC1=O` (centres unmarked) [CY007493], the “F508del-CFTR surface expression signal (Fig5a)” value [1] is reported as 225.716 and 325.901 and 303.406 and 383.168, the EC50 [2] is reported as 637 µM and the FP signal ([2]; compound 324.2 pM) is reported as 2. For the same compound, the FP signal ([2]; compound 648.5 pM) was 1, the FP signal ([2]; compound 1.297e-9 M) was 2 and the FP signal ([2]; compound 2.59399e-9 M) was 3. The FP signal ([2]; compound 5.18799e-9 M) was 3, the FP signal ([2]; compound 1.0376e-8 M) was 3 and the FP signal ([2]; compound 2.0752e-8 M) was 3. For the same compound, the FP signal ([2]; compound 4.15039e-8 M) was 3, the FP signal ([2]; compound 8.30078e-8 M) was 2 and the FP signal ([2]; compound 1.66016e-7 M) was 5. It also gave an FP signal ([2]; compound 3.32031e-7 M) of 4, an FP signal ([2]; compound 6.64062e-7 M) of 3 and an FP signal ([2]; compound 1.32813e-6 M) of 4. The FP signal ([2]; compound 2.65625e-6 M) was 5, the FP signal ([2]; compound 5.3125e-6 M) was 6 and the FP signal ([2]; compound 1.0625e-5 M) was 4. The FP signal ([2]; compound 2.125e-5 M) was 10, the FP signal ([2]; compound 4.25e-5 M) was 18 and the FP signal ([2]; compound 8.5e-5 M) was 37. It also gave an FP signal ([2]; compound 0.00034 M) of 117, an FP signal ([2]; compound 0.00068 M) of 184 and an FP signal ([2]; compound […]) of 71.
